This is an account of results in PMC10786919, “Design-rules for stapled peptides with in vivo activity and their application to Mdm2/X antagonists” (Nature Communications, 2024).

In brackets after ≈: the same amount, converted by molar mass. Where two headings read alike, the source gives them in different places. Positions of bridges follow the written chain, without caps; N, C: chain ends. Non-standard residues stand in square brackets, D forms with d. Residues, ends and D or L forms follow the SMILES beside them. Lys(N3) = [N-]=[N+]=NCCCC[C@H](N)C(=O)O; R8 = C=CCCCCCC[C@@](C)(N)C(=O)O; Cba = N[C@@H](CC1CCC1)C(=O)O; S5 = C=CCCC[C@](C)(N)C(=O)O; Aib = CC(C)(N)C(=O)O; βAla = NCCC(=O)O

Data set [1] in a line: Solubility assay (kinetic solubility, PBS pH 7). It counts as physicochemical. In outline:
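Values derive from peak-area ratios of sample versus a 100 µM standard, scaled by that standard's concentration.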

The nature of data set [2]: Lactate dehydrogenase (LDH) release assay. It counts as cell-based. To be noted: LDH: Cytotoxicity assay EC50. In outline:
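HCT116 cells stably carrying a p53-responsive β-lactamase reporter were seeded at 8000 cells per well with a final DMSO level of 0.5%. Membrane integrity was assessed by lactate dehydrogenase release using a homogeneous fluorometric kit. Values are geometric means of at least three biological replicates.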

The next data set relates to Ca Ski cell line. To be noted: 72 h. How it is done: (§1) The medium for CellSensor™ p53RE-bla HCT-116 cells was McCoy’s 5 A Medium (GIBCO16600-002) supplied with 10% FBS (Hyclone, SH30406.05), 100 U/100ug/ml of Pen/Strep (SolarBio, P1400) and 5 μg/ml of blasticidin (GIBCO, A11139). The medium for Ca Ski cells was RPMI1640 (Hyclone, SH3080901B) supplied with 10% FBS and 100 U/100ug/ml of Pen/Strep. All cells were kept in humidified incubators with 5% CO2 at 37 °C. Culture media was changed after one day of subculturing and cells were passed again when there was 70–80% confluence. One day before the assay, the cells were trypsinized, collected, counted and viability was determined. […] The plates were kept in humidified incubators with 5% CO2 at 37 °C overnight. Compounds were prepared as a 10 point, 3x serial dilution in 100% DMSO, starting from a top concentration of 10 mM. […] At the end of the incubation the assay plate was equilibrated at room temperature for approximately 30 minutes prior to the addition of 25 uL of CellTiter-Glo® 2.0 Reagent. The assay plate was mixed for 2 minutes on an orbital shaker to induce cell lysis. Next, the plate was incubated at room temperature for 10 minutes to stabilize the luminescent signal prior to recording the luminescence on a plate reader.

Data set [3] concerns CellSensor p53RE-bla HCT-116 Cell Line. The settings on record: 72 h. The procedure:
as §1

The next data set can be described thus: in vitro. The settings on record: Nanoclick permeability assay EC50. A digest of the protocol: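 Azido-peptide permeability was read as loss of NanoBRET signal (donor 450 nm, acceptor 610 nm) after adding NanoBret618-azide at 10 μM final.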
Data set [4] in a line: Experimental LogD (partition coefficient).

Take `CC(=O)N[C@@H](CCCCN=[N+]=[N-])C(=O)NCCC(=O)N[C@@H](CC(C)C)C(=O)N[C@H](C(=O)N[C@@H](Cc1ccccc1)C(=O)N[C@]1(C)CCCCCCC=CCCC[C@@](C)(C(=O)N[C@@H](C)C(=O)N[C@@H](C)C(=O)N[C@H](C)C(=O)N[C@@H](C)C(=O)N[C@@H](C)C(=O)N[C@H](C)C(N)=O)NC(=O)[C@H](CC2CCC2)NC(=O)[C@H](CCC(N)=O)NC(=O)[C@H](C)NC(=O)[C@H](Cc2c[nH]c3ccccc23)NC(=O)[C@H](Cc2ccc(O)cc2)NC(=O)[C@H](CCC(=O)O)NC1=O)[C@@H](C)O` [MP-425] (Ac-[Lys(N3)][βAla]LTF[R8]EYWAQ[Cba][S5]AA[dA]AA[dA]-NH2; staple 6-13): the solubility kinetic in data set [1] (pH 7, aqueous buffer, kinetic from dmso stock, pH 7, PBS, read-out: Solubility) is 185 µM (≈ 401 µg/mL). For the same compound, the EC50 was > 50.7 µM in data set [2], 47.3 µM in the data set with Ca Ski cell line and 1.27 µM in data set [3].

In the case of `CC(=O)N[C@@H](CCCCN=[N+]=[N-])C(=O)NCCC(=O)N[C@@H](CC(C)C)C(=O)N[C@H](C(=O)N[C@@H](Cc1ccccc1)C(=O)N[C@]1(C)CCCCCCC=CCCC[C@@](C)(C(=O)N[C@@H](C)C(=O)N[C@@H](C)C(=O)N[C@@H](Cc2ccccc2)C(=O)NC(C)(C)C(=O)N[C@@H](C)C(=O)N[C@@H](C)C(N)=O)NC(=O)[C@H](CC2CCC2)NC(=O)[C@H](CCC(N)=O)NC(=O)[C@H](C)NC(=O)[C@H](Cc2c[nH]c3ccccc23)NC(=O)[C@H](Cc2ccc(O)cc2)NC(=O)[C@H](CCC(=O)O)NC1=O)[C@@H](C)O` [MP-801] (Ac-[Lys(N3)][βAla]LTF[R8]EYWAQ[Cba][S5]AAF[Aib]AA-NH2; staple 6-13), the Solubility result in data set [1] (pH 7, PBS) is recorded as “Poorly Behaved”. Besides, in the data set “in vitro”, the cell entry EC50 amounted to 4.71 µM. Besides, the “Partition Coeff LogD” value in data set [4] is reported as “Poorly Behaved”. For the same compound, the EC50 in the data set with Ca Ski cell line was 19.1 µM; in data set [3], 4.58 µM.

For `CC(=O)N[C@@H](CCCCN=[N+]=[N-])C(=O)NCCC(=O)N[C@@H](CC(C)C)C(=O)N[C@H](C(=O)N[C@@H](Cc1ccccc1)C(=O)N[C@]1(C)CCCCCCC=CCCC[C@@](C)(C(=O)N[C@@H](C)C(=O)N[C@@H](C)C(=O)N[C@@H](C)C(=O)N[C@@H](C)C(=O)N[C@@H](C)C(N)=O)NC(=O)[C@H](CC2CCC2)NC(=O)[C@H](CCC(N)=O)NC(=O)[C@H](C)NC(=O)[C@H](Cc2c[nH]c3ccccc23)NC(=O)[C@H](Cc2ccc(O)cc2)NC(=O)[C@H](CCC(=O)O)NC1=O)[C@@H](C)O` [MP-685] (Ac-[Lys(N3)][βAla]LTF[R8]EYWAQ[Cba][S5]AAAAA-NH2; staple 6-13), in “in vitro”, the cell entry EC50 was > 10 µM. Besides, the concentration for a half-maximal effect (EC50) in data set [2] was > 50.7 µM; in the data set on Ca Ski cell line it was 22.8 µM; in data set [3], 9.55 µM.

With `CC(=O)N[C@@H](CCCCN=[N+]=[N-])C(=O)NCCC(=O)N[C@@H](CC(C)C)C(=O)N[C@H](C(=O)N[C@@H](Cc1ccccc1)C(=O)N[C@]1(C)CCCCCCC=CCCC[C@@](C)(C(=O)N[C@@H](CCO)C(=O)N[C@@H](CCO)C(=O)N[C@@H](Cc2ccccc2)C(=O)N[C@@H](CCO)C(=O)N[C@@H](CCO)C(=O)N[C@@H](Cc2ccccc2)C(N)=O)NC(=O)[C@H](CC2CCC2)NC(=O)[C@H](CCC(N)=O)NC(=O)[C@H](C)NC(=O)[C@H](Cc2c[nH]c3ccccc23)NC(=O)[C@H](Cc2ccc(O)cc2)NC(=O)[C@H](CCC(=O)O)NC1=O)[C@@H](C)O` [MP-802], in data set [1], the Solubility result is listed as “P.B”. Moreover, the cell entry EC50 in the data set “in vitro” stood at 9.16 µM. For the same compound, the log distribution coefficient (logD) in data set [4] (not stated, Partition Coeff LogD) is 3.08. Also, the EC50 in data set [2] is > 50.7 µM; in data set [3], 4.58 µM.
